Here are results for one substance from patent publication US20230413825A1, “SHORT AND LONG TERM DIS[…] ALCOHOL AND ZINC PYRITHIONE” (CAO Group, Inc., priority 2020, published 2023).

On the data set, the source says:
The present invention also utilizes the salts of pyrithione, especially the zinc salt.

Like-named read-outs stand apart in the source and are kept apart here.

Turning to Zinc pyrithione, the solubility entry is, setting by setting: (in solution in an admixture of alcohols and water) “about 60 ppm”; (in water) “about 8 ppm”.
